Measurements as given in patent US4507485A, “3,4-Disubstituted-1,2,5-oxadiazoles having histamine H2 -receptor antagonist activity” (Bristol-Myers Company, priority 1984, dated 1985).

Tests used:
[1] = system: histamine H2-receptor; settings: cited from earlier work; for histamine H2-antagonist potency/effectiveness: compared with burimamide or metiamide
[2] = in vivo; cited from earlier work
[3] = system: gastric secretion; settings: cited from earlier work
[4] = system: peptic ulcer disease; settings: clinical evaluation; cited from earlier work
[5] = in vivo; cited from earlier work; remark: listed apart in the source
[6] = system: gastric secretion (gastric fistula rat); histamine H2-receptor; test: Gastric antisecretory activity in the gastric fistula rat; type: in vivo, rat (male Long Evans); settings: sc; for Potency Ratio: relative to cimetidine = 1.0
Method: Male Long Evans rats weighing about 240-260 grams at the time of cannula implantation are used. […] The fistula components are designed and the operative procedure is carried out exactly as described in the above reference. Post operatively the animals are individually housed in solid bottom cages with sawdust and are allowed food and water ad libitum throughout the entire recovery period. Animals are not used for test purposes for at least 15 days after the operative procedure. The animals are fasted but allowed water ad libitum for 20 hours before the testing procedure is to begin. […] The catheter is then screwed into the cannula in place of the plugging screw and the rat is placed in a clear plastic rectangular cage measuring 40 cm long, 15 cm wide and 13 cm high. The bottom of the cage has a slit approximately 1.5 cm wide and 25 cm long running down the center to accommodate the catheter which hangs through it. […] Chem. Path. […] Gastric secretions collected during the first hour after washing the stomach are discarded as they may be contaminated. For oral evaluation, the catheter is then removed from the cannula and replaced with the plugging screw. […] After this time the plugging screw is removed and replaced with a catheter to which a small plastic vial has been attached to collect the gastric secretions. […] The secretions in the second sample are compared to those of the control sample in order to determine the effects of the test drug. […] Results are expressed as percent inhibition relative to control readings. Dose response curves are constructed and ED50 values are calculated by regression analyses. At least three rats are used at each dosage level and a minimum of three dosage levels are utilized for determination of a dose response curve.

[7] = system: gastric secretion (Heidenhain pouch dog); test: Gastric antisecretory activity in the Heidenhain pouch dog; type: in vivo, dog (female); settings: iv; for ED50: Canis lupus familiaris, histamine infusion
Method: Prior to surgery, hematology and blood chemistry profiles are obtained and an assessment made as to the general health of selected female dogs. Dogs are vaccinated with Tissue Vax 5 (DHLP--Pitman-Moore) and housed in general animal quarters for four weeks' observation so incipient diseases may become apparent. Dogs are fasted with water ad libitum 24 hours prior to surgery.
Anesthesia is induced with Sodium Pentothal (Abbott) 25-30 mg/kg iv. Subsequent anesthesia is maintained with methoxyflurane (Pitman-Moore). A mid-line linea alba incision from xiphoid to umbilicus provides good exposure and ease of closure. The stomach is pulled up into the operative field, the greater curvature stretched out at multiple points and clamps placed along the selected line of incision. The pouch is made from the corpus of the stomach so that true parietal cell juice is obtained. About 30% of the corpus volume is resected. […]
Ninety minutes' infusion are allowed for the dogs to reach a steady state of acid output. […] Each sample is measured to the nearest 0.5 ml and titratable acidity is determined by titrating a 1 ml sample to pH 7.0 with 0.2N NaOH, using an Autoburet and an electrometric pH meter (Radiometer). Titratable acid output is calculated in microequivalents by multiplying the volume in milliliters by the acid concentration in milliequivalents per liter.
Results are expressed as percent inhibition relative to control readings and the response is the average for five days at that dose level.

SMILES | histamine H2-antagonist potency/effectiveness [1] | toxicity (agranulocytosis) [5] | ED50 [6] | Potency Ratio [6] | ED50 [7] | further results
CNC(=S)NCCCCc1cnc[nH]1 [Burimamide] | – | – | – | – | – | clinical effectiveness as histamine H2-receptor antagonist ([1]; clinical): first clinically effective; oral absorption [2]: poor; inhibition of gastric secretion ([3]; animals, including man): inhibits gastric secretion in animals, including man
CN=C(NC#N)NCCSCc1[nH]cnc1C [Cimetidine] | as effective an histamine H2 -antagonist as metiamide | without producing agranulocytosis | – | – | – | therapeutic effect in peptic ulcer disease [4]: effective therapeutic agent in the treatment of peptic ulcer disease
Nc1nonc1NCCCOc1cccc(CN2CCCCC2)c1 [Example 1, 3-Amino-4-[3-(3-piperidinomethylphenoxy)propylamino]-1,2,5-oxadiazole] | – | – | 0.18 µmol/kg | 19.3 | 0.03 mg/kg | Potency Ratio ([7]; relative to ranitidine = 1.0): 1.8
CN(C)Cc1ccc(CSCCNc2nonc2N)o1 [Example 2, 3-Amino-4-{2-[(5-dimethylaminomethyl-2-furyl)methylthio]ethylamino}-1,2,5-oxadiazole] | – | – | 5 µmol/kg | 0.70 | – | –
CNC(=S)NCCSCc1[nH]cnc1C [Metiamide] | more potent than burimamide | toxicity (agranulocytosis) | – | – | – | oral activity in man ([3]; oral, man): orally active in man
CNC(=C[N+](=O)[O-])NCCSCc1ccc(CN(C)C)o1 [Ranitidine] | – | – | – | – | 0.054 mg/kg | –
